Experimental data as given in US9827228B2, “Opioid receptor modulators and use thereof” (priority 2015, dated 2017).
Where two headings read alike, the source gives them in different places.

Biological target: T1, hMOR (Homo sapiens, UniProt P35372)
T1 construct: host or cells: CHO-K1
Assay: cell-based
Assay type: cell-based
Conditions: for AUC: AUC of [Ca2+]i fluorescence
Method: Chinese hamster ovary (CHO)-K1 cells expressing hMOR and Gα15 (CHO-K1/MOR/Gα15) were cultured in F12 medium (GIBCO) supplemented with 10 μg/mL Hygromycin B (Invivogen), 20 μg/mL Zeocin (Invivogen) and P/S/F (100 units/mL penicillin, 100 μg/mL streptomycin, 10% fetal bovine serum). The cultures were incubated at 37° C. in a humidified 5% CO2 incubator.
One day prior to running the assay, CORNING® black 96-well assay plates having a clear flat bottom were coated with a 0.1 mg/mL Poly-L-Lysine solution. CHO-K1/MOR/Gα15 cells were suspended in F12 medium and plated at a density of about 8×10^4 cells/well in 200 μL medium. Cells were incubated under a humidified atmosphere of 10% CO2 at 37° C. overnight to reach an 80-90% confluent cell monolayer before the assay. On the day of the assay, 150 μL medium was removed from each well of the plates. To each well were added FLIPR® calcium assay reagents (Molecular Devices Corporation, Sunnyvale, Calif., USA; 50 μL) dissolved in 1× assay buffer (HBSS: KCl 5 mM, KH2PO4 0.3 mM, NaCl 138 mM, NaHCO3 4 mM, Na2HPO4 0.3 mM, d-glucose 5.6 mM, with additional 20 mM HEPES and […], pH 7.4) and 2.5 mM probenecid. After incubation at 37° C. for 1 hour, a test compound, alone or together with naloxone (a MOR antagonist), was also added to each well. Using a FlexStationlll instrument (Molecular Devices Corp.), increments of the [Ca^2+]i fluorescence after robotic injection of the cell suspension were monitored at 1.52 s intervals using the excitation wavelength of 485 nm and the emission wavelength of 525 nm. The [Ca^2+]i fluorescence was measured up to 90 s after the injection. The fluorescence intensity from 6 to 12 wells of cells were averaged and the relative amount of [Ca^2+]i release was determined by integrating the AUC of the [Ca^2+]i fluorescence averages.
A CHO-K1 cell line expressing MOR and Gα15 (GenScript) was used to set up a sensitive high-throughput screen (HTS) system. […] The HTS was performed in the absence or presence of naloxone (an opioid antagonist; 20 nM), to identify AAMs.

[1] = combined with naloxone, CHO-K1/MOR/Gα15 cells
[2] = combined with naloxone, CHO-K1/MOR/Gα15 cells, read-out: EC50
[3] = EC50, combined with naloxone, CHO-K1/MOR/Gα15 cells

T1 sequence (P35372 whole entry): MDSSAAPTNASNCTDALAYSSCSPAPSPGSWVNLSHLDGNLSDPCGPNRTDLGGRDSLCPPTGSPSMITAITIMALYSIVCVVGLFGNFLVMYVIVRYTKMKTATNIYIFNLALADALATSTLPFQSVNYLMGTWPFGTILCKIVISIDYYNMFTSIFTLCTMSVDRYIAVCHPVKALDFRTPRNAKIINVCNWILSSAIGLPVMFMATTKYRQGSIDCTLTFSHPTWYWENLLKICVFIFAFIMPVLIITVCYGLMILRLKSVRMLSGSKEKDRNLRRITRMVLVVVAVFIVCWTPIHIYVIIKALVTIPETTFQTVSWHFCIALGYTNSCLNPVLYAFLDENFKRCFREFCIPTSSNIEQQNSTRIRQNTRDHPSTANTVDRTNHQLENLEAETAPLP

SMILES | AUC [1] | EC50 [2] | EC50 (EC50, combined with naloxone) | EC50 [3]
Cc1nc(C)c(-c2csc(Nc3ccccc3N3CCCCC3)n2)s1 [Compound 68, 2′,4′-Dimethyl-N-[2-(1-piperidinyl)phenyl]-4,5′-bi-1,3-thiazol-2-amine] | − (−: <5000) | > 10 µM |  | 
Cc1nc(C)c(-c2csc(Nc3ccccc3N3CCOCC3)n2)s1 [Compound 70, 2′,4′-Dimethyl-N-[2-(4-morpholinyl)phenyl]-4,5′-bi-1,3-thiazol-2-amine] | − (−: <5000) |  | < 10 µM | 3 to 10 µM
Cc1nc(C)c(-c2csc(Nc3ccccc3-n3cccc3)n2)s1 [Compound 72, 2′,4′-Dimethyl-N-[2-(1H-pyrrol-1-yl)phenyl]-4,5′-bi-1,3-thiazol-2-amine] | − (−: <5000) | > 10 µM |  | 
Cc1nc(C)c(-c2csc(Nc3ccc(N(C)C)cc3C)n2)s1 [Compound 75, N^1-(2′,4′-Dimethyl-4,5′-bi-1,3-thiazol-2-yl)-N^4,N^4,2-trimethyl-1,4-benzenediamine] | − (−: <5000) | > 10 µM |  | 
Cc1nc(C)c(-c2csc(Nc3cccc(Cl)c3C)n2)s1 [Compound 77, N-(3-Chloro-2-methylphenyl)-2′,4′-dimethyl-4,5′-bi-1,3-thiazol-2-amine] | − (−: <5000) | > 10 µM |  | 
Cc1nc(C)c(-c2csc(Nc3ncccc3C)n2)s1 [Compound 79, 2′,4′-Dimethyl-N-(3-methyl-2-pyridinyl)-4,5′-bi-1,3-thiazol-2-amine] | − (−: <5000) | > 10 µM |  | 
CCc1ccc(C)nc1Nc1nc(-c2sc(C)nc2C)cs1 [Compound 82, N-(3-Ethyl-6-methyl-2-pyridinyl)-2′,4′-dimethyl-4,5′-bi-1,3-thiazol-2-amine] | − (−: <5000) | > 10 µM |  | 
COc1cccc(Nc2nc(-c3sc(C)nc3C)cs2)c1C [Compound 85, N-(3-Methoxy-2-methylphenyl)-2′,4′-dimethyl-4,5′-bi-1,3-thiazol-2-amine] | + (+: >5000) |  | < 10 µM | 3 to 10 µM
Cc1nc(C)c(-c2csc(Nc3cccc(C(F)(F)F)c3C)n2)s1 [Compound 87, 2′,4′-Dimethyl-N-[2-methyl-3-(trifluoromethyl)phenyl]-4,5′-bi-1,3-thiazol-2-amine] | − (−: <5000) | > 10 µM |  | 
Cc1nc(C)c(-c2csc(Nc3cccc(O)c3C)n2)s1 [Compound 89, 3-[(2′,4′-Dimethyl-4,5′-bi-1,3-thiazol-2-yl)amino]-2-methylphenol] | − (−: <5000) | > 10 µM |  | 
CCc1ccccc1Nc1nc(-c2sc(-c3ccccc3)nc2C)cs1 [Compound 92, N-(2-Ethylphenyl)-4′-methyl-2′-phenyl-4,5′-bi-1,3-thiazol-2-amine] | − (−: <5000) | > 10 µM |  | 
Cc1ccc(Nc2nc(-c3sc(-c4ccccc4)nc3C)cs2)c(C)c1 [Compound 93, N-(2,4-Dimethylphenyl)-4′-methyl-2′-phenyl-4,5′-bi-1,3-thiazol-2-amine] | − (−: <5000) | > 10 µM |  | 
CCc1ccccc1Nc1nc(-c2sc(-c3ccc(Cl)cc3)nc2C)cs1 [Compound 94, 2′-(4-Chlorophenyl)-N-(2-ethylphenyl)-4′-methyl-4,5′-bi-1,3-thiazol-2-amine] | − (−: <5000) | > 10 µM |  | 
CCc1nc(C)c(-c2csc(Nc3ccccc3CC)n2)s1 [Compound 95, 2′-Ethyl-N-(2-ethylphenyl)-4′-methyl-4,5′-bi-1,3-thiazol-2-amine] | + (+: >5000) |  | < 10 µM | 3 to 10 µM
CCc1ccccc1Nc1nc(-c2sc(C)nc2C)c(C)s1 [Compound 98, N-(2-Ethylphenyl)-2′,4′,5-trimethyl-4,5′-bi-1,3-thiazol-2-amine] | − (−: <5000) | > 10 µM |  | 
CCc1ccccc1Nc1nc(-c2sc(N)nc2C)cs1 [Compound 100, N^2-(2-ethylphenyl)-4′-methyl-4,5′-bi-1,3-thiazole-2,2′-diamine] | − (−: <5000) | > 10 µM |  | 
CCc1ccccc1Nc1nc(-c2oc(C)nc2C)cs1 [Compound 102, 4-(2,4-Dimethyl-1,3-oxazol-5-yl)-N-(2-ethylphenyl)-1,3-thiazol-2-amine] | + (+: >5000) |  | < 10 µM | 3 to 10 µM
Cc1ccc(Nc2nc(-c3oc(C)nc3C)cs2)c(C)c1 [Compound 105, 4-(2,4-Dimethyl-1,3-oxazol-5-yl)-N-(2,4-dimethylphenyl)-1,3-thiazol-2-amine] | + (+: >5000) | > 10 µM |  | 

SMILES | AUC [1] | EC50 [2] | EC50 (EC50, combined with naloxone) | EC50 [3]
Cc1cc(C)c(Nc2nc(-c3oc(C)nc3C)cs2)c(C)c1 [Compound 106, 4-(2,4-Dimethyl-1,3-oxazol-5-yl)-N-(2,4,6-trimethylphenyl)-1,3-thiazol-2-amine] | + (+: >5000) |  | < 10 µM | 3 to 10 µM
CCc1ccccc1Nc1ncc(-c2sc(C)nc2C)o1 [Compound 107, 5-(2,4-Dimethyl-1,3-thiazol-5-yl)-N-(2-ethylphenyl)-1,3-oxazol-2-amine] | + (+: >5000) | > 10 µM |  | 
CCc1ccccc1Nc1ncc(-c2oc(C)nc2C)o1 [Compound 109, 5-(2,4-Dimethyl-1,3-oxazol-5-yl)-N-(2-ethylphenyl)-1,3-oxazol-2-amine] | − (−: <5000) | > 10 µM |  | 
COC(=O)Cc1cnc(Nc2nc(-c3sc(C)nc3C)cs2)s1 [Compound 111, Methyl {2-[(2′,4′-dimethyl-4,5′-bi-1,3-thiazol-2-yl)amino]-1,3-thiazol-5-yl}acetate] | − (−: <5000) | > 10 µM |  | 
Cc1csc(Nc2nc(-c3sc(C)nc3C)cs2)n1 [Compound 114, 2′,4′-Dimethyl-N-(4-methyl-1,3-thiazol-2-yl)-4,5′-bi-1,3-thiazol-2-amine] | − (−: <5000) | > 10 µM |  | 
Cc1nc(C)c(-c2csc(Nc3nc4ccccc4s3)n2)s1 [Compound 117, N-(1,3-Benzothiazol-2-yl)-2′,4′-dimethyl-4,5′-bi-1,3-thiazol-2-amine] | − (−: <5000) | > 10 µM |  | 
CCc1ccccc1Nc1nc(-c2ccc(C)cc2C)cs1 [Compound 120, 4-(2,4-Dimethylphenyl)-N-(2-ethylphenyl)-1,3-thiazol-2-amine] | − (−: <5000) | > 10 µM |  | 
CCc1ccccc1Nc1nc(-c2ccc(C)cc2)cs1 [Compound 121, N-(2-Ethylphenyl)-4-(4-methylphenyl)-1,3-thiazol-2-amine] | − (−: <5000) | > 10 µM |  | 
CCc1ccccc1Nc1nc(-c2ccc3c(c2)OCCCO3)cs1 [Compound 122, 4-(3,4-Dihydro-2H-1,5-benzodioxepin-7-yl)-N-(2-ethylphenyl)-1,3-thiazol-2-amine] | − (−: <5000) | > 10 µM |  | 
CCc1ccccc1Nc1nc(-c2ccccn2)cs1 [Compound 123, N-(2-Ethylphenyl)-4-(2-pyridinyl)-1,3-thiazol-2-amine] | − (−: <5000) | > 10 µM |  | 
CCc1ccccc1Nc1nc(-c2cccs2)cs1 [Compound 124, N-(2-Ethylphenyl)-4-(2-thiophenyl)-1,3-thiazol-2-amine] | − (−: <5000) | > 10 µM |  | 
CCc1ccccc1Nc1nc(-c2nccs2)cs1 [Compound 126, N-(2-Ethylphenyl)-2,4′-bi-1,3-thiazol-2′-amine] | − (−: <5000) | > 10 µM |  | 
CCc1ccccc1Nc1nc2c(s1)Cc1ccccc1-2 [Compound 127, N-(2-Ethylphenyl)-8H-indeno[1,2-d][1,3]thiazol-2-amine] | − (−: <5000) | > 10 µM |  | 
CCOC(=O)c1cc(-c2csc(Nc3ccccc3CC)n2)on1 [Compound 128, Ethyl 5-{2-[(2-ethylphenyl)amino]-1,3-thiazol-4-yl}-1,2-oxazole-3-carboxylate] | − (−: <5000) | > 10 µM |  | 
CCc1ccccc1Nc1nc(-c2cc(-c3ccccc3)no2)cs1 [Compound 129, N-(2-Ethylphenyl)-4-(3-phenyl-1,2-oxazol-5-yl)-1,3-thiazol-2-amine] | − (−: <5000) | > 10 µM |  | 
Cc1nc(C)c(-c2csc(N)n2)s1 [Compound 130, 2′,4′-Dimethyl-4,5′-bi-1,3-thiazol-2-amine] | − (−: <5000) | > 10 µM |  | 
CCc1ccccc1Nc1nccs1 [Compound 131, N-(2-Ethylphenyl)-1,3-thiazol-2-amine] | − (−: <5000) | > 10 µM |  | 
